Assay results published in patent US20170190671A1, “BIS(ARYL)CATECHOL DERIVATIVES AS HERBICIDES” (E I DU PONT DE NEMOURS AND COMPANY, priority 2014, published 2017).

Key:
Test in all cases: Test F preemergence
Format in all cases: in vivo
Conditions in all cases: 21 days, scale 0 to 100
[1] = test system: crabgrass, naked (naked crabgrass, Digitaria nuda)
Description: (§1) Seeds of plant species selected from bermudagrass (Cynodon dactylon), Surinam grass (Brachiaria decumbens), large (Lg) crabgrass (Digitaria sanguinalis), crabgrass, naked (naked crabgrass, Digitaria nuda), foxtail, green (green foxtail, Setaria viridis), johnsongrass (Sorghum halepense), kochia (Kochia scoparia), morningglory (pitted morningglory, Ipomoea lacunosa), nutsedge, purple (purple nutsedge, Cyperus rotundus), ragweed (common ragweed, Ambrosia elatior), mustard, black (black mustard, Brassica nigra), guineagrass (Panicum maximum), dallisgrass (Paspalum dilatatum), barnyardgrass (Echinochloa crus-galli), sandbur (southern sandbur, Cenchrus echinatus), sowthistle (common sowthistle, Sonchus oleraceous), Italian ryegrass (Lolium multiflorum), signalgrass (broadleaf signalgrass, Brachiaria platyphylla), dayflower (Virginia (VA) dayflower, Commelina virginica), bluegrass (annual bluegrass, Poa annua), quackgrass (Elytrigia repens), mallow (common mallow, Malva sylvestris), buckwheat, wild (wild buckwheat, Polygonum convolvulus), leafy spurge (Euphorbia esula), chickweed (common chickweed, Stellaria media), wild poinsettia (Euphorbia heterophylla), and pigweed (Amaranthus retroflexus) were planted into a blend of loam soil and sand and treated preemergence with test a chemical formulated in a non-phytotoxic solvent mixture which included a surfactant.
(§2) Treated plants and controls were maintained in a greenhouse for 21 days, after which time all species were compared to controls and visually evaluated. Plant response ratings, summarized in Table F, are based on a scale of 0 to 100 where 0 is no effect and 100 is complete control. A dash (-) response means no test result.

[2] = test system: bluegrass (annual bluegrass, Poa annua)
Description: as §1, §2

[3] = test system: nutsedge, purple (purple nutsedge, Cyperus rotundus)
Description: as §1, §2

[4] = test system: chickweed (common chickweed, Stellaria media)
Description: as §1, §2

[5] = test system: sandbur (southern sandbur, Cenchrus echinatus)
Description: as §1, §2

[6] = test system: ragweed (common ragweed, Ambrosia elatior)
Description: as §1, §2

[7] = test system: mustard, black (black mustard, Brassica nigra)
Description: as §1, §2

[8] = test system: leafy spurge (Euphorbia esula)
Description: as §1, §2

[9] = test system: sowthistle (common sowthistle, Sonchus oleraceous)
Description: as §1, §2

[10] = test system: large (Lg) crabgrass (Digitaria sanguinalis)
Description: as §1, §2

[11] = test system: mallow (common mallow, Malva sylvestris)
Description: as §1, §2

[12] = test system: Italian ryegrass (Lolium multiflorum)
Description: as §1, §2

[13] = test system: quackgrass (Elytrigia repens)
Description: as §1, §2

[14] = test system: johnsongrass (Sorghum halepense)
Description: as §1, §2

[15] = test system: Surinam grass (Brachiaria decumbens)
Description: as §1, §2

[16] = test system: guineagrass (Panicum maximum)
Description: as §1, §2

[17] = test system: bermudagrass (Cynodon dactylon)
Description: as §1, §2

kochia (Kochia scoparia) = test system: kochia (Kochia scoparia)
Description: as §1, §2

[18] = test system: barnyardgrass (Echinochloa crus-galli)
Description: as §1, §2

[19] = test system: dallisgrass (Paspalum dilatatum)
Description: as §1, §2

[20] = test system: signalgrass (broadleaf signalgrass, Brachiaria platyphylla)
Description: as §1, §2

[21] = test system: foxtail, green (green foxtail, Setaria viridis)
Description: as §1, §2

[22] = test system: dayflower (Virginia (VA) dayflower, Commelina virginica)
Description: as §1, §2

[23] = test system: wild poinsettia (Euphorbia heterophylla)
Description: as §1, §2

[24] = test system: pigweed (Amaranthus retroflexus)
Description: as §1, §2

[25] = test system: morningglory (pitted morningglory, Ipomoea lacunosa)
Description: as §1, §2

## N#Cc1cccc(Oc2ncc(Cl)cn2)c1Oc1ncc(Cl)cn1 [Compound 3, 2,3-bis[(5-chloro-2-pyrimidinyl)oxy]benzonitrile]
[1]; 62 g ai/ha
  Plant response rating, Crabgrass, Naked: 100
[1]; 125 g ai/ha
  Plant response rating, Crabgrass, Naked: 100
[1]; 250 g ai/ha
  Plant response rating, Crabgrass, Naked: 100
[2]; 62 g ai/ha
  Plant response rating, Bluegrass: 80
[2]; 125 g ai/ha
  Plant response rating, Bluegrass: 100
[2]; 250 g ai/ha
  Plant response rating, Bluegrass: 100
[3]; 62 g ai/ha
  Plant response rating, Nutsedge, Purple: 40
[3]; 125 g ai/ha
  Plant response rating, Nutsedge, Purple: 60
[3]; 250 g ai/ha
  Plant response rating, Nutsedge, Purple: 85
[4]; 62 g ai/ha
  Plant response rating, Chickweed: 100
[4]; 125 g ai/ha
  Plant response rating, Chickweed: 100
[4]; 250 g ai/ha
  Plant response rating, Chickweed: 100
[5]; 62 g ai/ha
  Plant response rating, Sandbur: 35
[5]; 125 g ai/ha
  Plant response rating, Sandbur: 100
[5]; 250 g ai/ha
  Plant response rating, Sandbur: 100
[6]; 62 g ai/ha
  Plant response rating, Ragweed: 85
[6]; 125 g ai/ha
  Plant response rating, Ragweed: 100
[6]; 250 g ai/ha
  Plant response rating, Ragweed: 100
[7]; 62 g ai/ha
  Plant response rating, Mustard, Black: 100
[7]; 125 g ai/ha
  Plant response rating, Mustard, Black: 100
[7]; 250 g ai/ha
  Plant response rating, Mustard, Black: 100
[8]; 62 g ai/ha
  Plant response rating, Leafy Spurge: 98
[8]; 125 g ai/ha
  Plant response rating, Leafy Spurge: 100
[8]; 250 g ai/ha
  Plant response rating, Leafy Spurge: 98
[9]; 62 g ai/ha
  Plant response rating, Sowthistle: 100
[9]; 125 g ai/ha
  Plant response rating, Sowthistle: 100
[9]; 250 g ai/ha
  Plant response rating, Sowthistle: 100
[10]; 62 g ai/ha
  Plant response rating, Crabgrass, Large: 100
[10]; 125 g ai/ha
  Plant response rating, Crabgrass, Large: 100
[10]; 250 g ai/ha
  Plant response rating, Crabgrass, Large: 100
[11]; 62 g ai/ha
  Plant response rating, Mallow: 100
[11]; 125 g ai/ha
  Plant response rating, Mallow: 100
[11]; 250 g ai/ha
  Plant response rating, Mallow: 100
[12]; 62 g ai/ha
  Plant response rating, Ryegrass, Italian: 95
[12]; 125 g ai/ha
  Plant response rating, Ryegrass, Italian: 100
[12]; 250 g ai/ha
  Plant response rating, Ryegrass, Italian: 100
[13]; 62 g ai/ha
  Plant response rating, Quackgrass: 65
[13]; 125 g ai/ha
  Plant response rating, Quackgrass: 90
[13]; 250 g ai/ha
  Plant response rating, Quackgrass: 98
[14]; 62 g ai/ha
  Plant response rating, Johnsongrass: 75
[14]; 125 g ai/ha
  Plant response rating, Johnsongrass: 100
[14]; 250 g ai/ha
  Plant response rating, Johnsongrass: 100
[15]; 62 g ai/ha
  Plant response rating, Surinam Grass: 75
[15]; 125 g ai/ha
  Plant response rating, Surinam Grass: 100
[15]; 250 g ai/ha
  Plant response rating, Surinam Grass: 100
[16]; 62 g ai/ha
  Plant response rating, Guineagrass: 100
[16]; 125 g ai/ha
  Plant response rating, Guineagrass: 100
[16]; 250 g ai/ha
  Plant response rating, Guineagrass: 100
[17]; 62 g ai/ha
  Plant response rating, Bermudagrass: 100
[17]; 125 g ai/ha
  Plant response rating, Bermudagrass: 100
[17]; 250 g ai/ha
  Plant response rating, Bermudagrass: 100
Kochia (Kochia scoparia); 62 g ai/ha
  Plant response rating, Kochia: 100
Kochia (Kochia scoparia); 125 g ai/ha
  Plant response rating, Kochia: 100
Kochia (Kochia scoparia); 250 g ai/ha
  Plant response rating, Kochia: 100
[18]; 62 g ai/ha
  Plant response rating, Barnyardgrass: 98
[18]; 125 g ai/ha
  Plant response rating, Barnyardgrass: 100
[18]; 250 g ai/ha
  Plant response rating, Barnyardgrass: 100
[19]; 62 g ai/ha
  Plant response rating, Dallisgrass: 100
[19]; 125 g ai/ha
  Plant response rating, Dallisgrass: 100
[19]; 250 g ai/ha
  Plant response rating, Dallisgrass: 100
[20]; 62 g ai/ha
  Plant response rating, Signalgrass: 100
[20]; 125 g ai/ha
  Plant response rating, Signalgrass: 100
[20]; 250 g ai/ha
  Plant response rating, Signalgrass: 100
[21]; 62 g ai/ha
  Plant response rating, Foxtail, Green: 100
[21]; 125 g ai/ha
  Plant response rating, Foxtail, Green: 100
[21]; 250 g ai/ha
  Plant response rating, Foxtail, Green: 100
[22]; 62 g ai/ha
  Plant response rating, Dayflower, VA: 98
[22]; 125 g ai/ha
  Plant response rating, Dayflower, VA: 100
[22]; 250 g ai/ha
  Plant response rating, Dayflower, VA: 100
[23]; 62 g ai/ha
  Plant response rating, Poinsettia, Wild: 95
[23]; 125 g ai/ha
  Plant response rating, Poinsettia, Wild: 95
[23]; 250 g ai/ha
  Plant response rating, Poinsettia, Wild: 100
[24]; 62 g ai/ha
  Plant response rating, Pigweed: 100
[24]; 125 g ai/ha
  Plant response rating, Pigweed: 100
[24]; 250 g ai/ha
  Plant response rating, Pigweed: 100
[25]; 62 g ai/ha
  Plant response rating, Morningglory, Pitt: 100
[25]; 125 g ai/ha
  Plant response rating, Morningglory, Pitt: 100
[25]; 250 g ai/ha
  Plant response rating, Morningglory, Pitt: 100
